Tests used:
ICA512-TMF = assay: Stimulus-induced decrease of ICA512-TMF in rat pancreatic islets (western blot); assay type: cell-based; details: purified rat pancreatic islets; with or without 60 μM calpeptin
Protocol: Islet isolation and cell culture. Pancreatic islets were isolated from female Wistar rats by collagenase digestion, purified by density gradient centrifugation, and cultured (400/60 mm culture dish) as described previously (26). INS-1 cells were grown as described (27). Cell extracts and western blotting. Wild type and transfected INS-1 cells and rat pancreatic islets (350-450) were pre-incubated for 60 minutes in resting buffer containing 0 mM glucose and 5 mM KCl and then incubated for various times in fresh resting or stimulating buffer including 25 mM glucose and 55 mM KCl, as previously described (7). […] Next, the cells were washed with ice cold PBS, and extracted in lysis buffer (10 mM Tris-HCl at pH 8.0, 140 mM NaCl, 1% Triton X-100, 1 mM EDTA, 1 mM PMSF, and 1% protease inhibitor cocktail (Sigma, St. Louis, Mo.) at 4° C. Cytosolic and nuclear extracts were prepared using the NE-PER Nuclear and Cytoplasmic Extraction Reagents (Pierce, Rockford, Ill.) in accordance with the manufacturer's instructions. Protein concentration was measured using the Bio-Rad Protein Assay Reagent (Bio-Rad, Hercules, Calif.). Equivalent amount of protein was separated by 8-10% SDS-PAGE, except for nuclear extracts, in which case half of the protein were loaded compared to the corresponding cytosolic extracts. […] Quantitation of protein signals was performed with the Image Gauge v3.45 software (Fuji).

Insulin mRNA = Insulin mRNA levels by real-time PCR in INS-1 cells; assay type: cell-based, rat; details: 40 μM calpeptin; 2 hrs after 6 hrs stimulation and later; vs cells stimulated without calpeptin
Protocol: Time-course stimulation of INS-1 cells. INS-1 ceils were incubated for 1 hr. in resting buffer (2.8 mM glucose and 5 mM KCl), then for 6 hrs. in resting or stimulating buffer, with or without 40 μM calpeptin, and then again in resting buffer for up to 24 hrs. Total RNA for real-time PCR was collected at time 0, 2 and 6 hrs. during stimulation and at 2, 6, 12 and 24 hrs. during the following resting period.
Real-time PCR. Total RNA from INS-1 cells was isolated with Trizol (Invitrogen, Karlsruhe, Germany) according to the manufacturer's protocol. 1 μg of total RNA was used for the reverse transcriptase reaction, with 2 μM specific antisense primers for […] and insulin, as described (31). mRNA expression was measured by quantitative real-time PCR using the Brilliant SYBR Green QPCR (Stratagene, La Jolla, Calif.) with an Mx4000 Multiplex Quantitative Real Time PCR System (Stratagene).

INS-1 cells = assay: Nuclear levels of ICA512-CCF-GFP in INS-1 cells (nuclear extracts, confocal imaging); assay type: cell-based, rat; details: ICA512-GFP INS-1 cells; 60 μM calpeptin
Protocol: Cell extracts and western blotting. Wild type and transfected INS-1 cells and rat pancreatic islets (350-450) were pre-incubated for 60 minutes in resting buffer containing 0 mM glucose and 5 mM KCl and then incubated for various times in fresh resting or stimulating buffer including 25 mM glucose and 55 mM KCl, as previously described (7). The protease inhibitors calpeptin, MG-132, L-685,458 (Calbiochem, La Jolla, Calif.) were added in the last 15 minutes of the pre-incubation, and then for the entire following period before cells were harvested. Next, the cells were washed with ice cold PBS, and extracted in lysis buffer (10 mM Tris-HCl at pH 8.0, 140 mM NaCl, 1% Triton X-100, 1 mM EDTA, 1 mM PMSF, and 1% protease inhibitor cocktail (Sigma, St. Louis, Mo.) at 4° C. Cytosolic and nuclear extracts were prepared using the NE-PER Nuclear and Cytoplasmic Extraction Reagents (Pierce, Rockford, Ill.) in accordance with the manufacturer's instructions. Protein concentration was measured using the Bio-Rad Protein Assay Reagent (Bio-Rad, Hercules, Calif.). Equivalent amount of protein was separated by 8-10% SDS-PAGE, except for nuclear extracts, in which case half of the protein were loaded compared to the corresponding cytosolic extracts. […] Quantitation of protein signals was performed with the Image Gauge v3.45 software (Fuji). […]

SMILES: CCCC[C@@H](C=O)NC(=O)[C@H](CC(C)C)NC(=O)OCc1ccccc1 [calpeptin]
- decrease of ICA512-TMF upon stimulation (ICA512-TMF): calpeptin-sensitive decrease of ICA512-TMF
- insulin mRNA reduction (Insulin mRNA): ~40%
- enrichment of 55 kD ICA512-CCF-GFP in nuclear fractions of stimulated cells (INS-1 cells): in a calpeptin-sensitive manner
